Earlier results as cited in patent US6730664B1, “Formulations for parenteral use of estramustine phosphate and sulfoalkyl ether cyclodextrins” (Pharmacia Italia S.p.A., priority 1999, dated 2004).

Details: patients, slow intravenous injection or bolus, 300 mg/day

C[C@]12CC[C@@H]3c4ccc(OC(=O)N(CCCl)CCCl)cc4CC[C@H]3[C@@H]1CC[C@@H]2OP(=O)(O)O [estramustine phosphate, Estramustine phosphate]
side effects at the peripheral intravenous injection sites: thrombophlebitis and local irritations
